Measured values from paper PMC3880597 (Journal of medicinal chemistry, 2013).

Experiments:
[1] = Pharmacokinetics and brain distribution after single sc dose to mice; type: in vivo
[2] = molecular target: MMP-9cat (catalytic domain of human recombinant MMP-9) (Homo sapiens, UniProt P14780); test: MMP inhibition kinetics, MMP-9cat; type: biochemical; details: slow-binding; Ki calculated from koff/kon
[3] = Metabolic stability in male rat liver S9; type: in vitro ADME
[4] = female, C57Bl/6J, mouse, in vivo, 25 mg/kg
[5] = female, C57Bl/6J, mouse, in vivo, sc, 25 mg/kg

Sequence of MMP-9cat (catalytic domain of human recombinant MMP-9) (P14780 107-444 limits assumed): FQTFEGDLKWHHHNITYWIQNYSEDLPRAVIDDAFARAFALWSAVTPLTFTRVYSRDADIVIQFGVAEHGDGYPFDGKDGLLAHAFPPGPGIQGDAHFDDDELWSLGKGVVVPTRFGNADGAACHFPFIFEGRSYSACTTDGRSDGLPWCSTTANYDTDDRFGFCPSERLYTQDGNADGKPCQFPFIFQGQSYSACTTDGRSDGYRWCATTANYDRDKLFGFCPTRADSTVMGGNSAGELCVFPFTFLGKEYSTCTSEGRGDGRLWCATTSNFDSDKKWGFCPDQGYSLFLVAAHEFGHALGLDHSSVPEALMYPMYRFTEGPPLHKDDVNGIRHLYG

With `O=S(=O)(CC1CS1)c1ccc(Oc2ccc(O)cc2)cc1` (stereo not drawn) [Compound 2] the “time of maximal brain level of 2” value ([1]; after 25 mg/kg sc dose of 5b) was 20 min, the “maximal brain level of 2, molar equivalent” value ([1]; after 25 mg/kg sc dose of 5b, at 20 min, assuming a density of 1.0 g/mL) was 1.35 ± 1.10 µM and the “brain level of 2 at 4 h” value ([1]; after 25 mg/kg sc dose of 5b, mice) was 0.255 ± 0.0154 pmol/mg. For the same compound, the “maximal plasma concentration of 2” value ([1]; after 25 mg/kg sc dose of 5b, mice, at 10 min) was 1.24 ± 0.676 µM, the “maximal brain level of 2” value ([1]; after 25 mg/kg sc dose of 5b, mice, at 20 min) was 1.35 ± 1.10 pmol/mg tissue and the “t½α, plasma” value ([1]; compound 2 after 25 mg/kg sc dose of 5b, mice) was 0.688 h. The Kp [1, 4] was 1.64, the concentration at 4 h [1, 4] was 114 ± 14.7 nM and the AUC(0-inf) [1, 5] was 1.17 µM·h. It also gave an AUC(0-t) [1, 5] of 0.9 µM·h, a Tmax [1, 5] of 0.167 h and a half-life ([1]; female, C57Bl/6J, mouse, in vivo, sc, 25 mg/kg, t½β, brain) of 8.88 h. The half-life ([1]; female, C57Bl/6J, mouse, in vivo, sc, 25 mg/kg, t½β, plasma) was 7.7 h, the half-life ([1]; female, C57Bl/6J, mouse, in vivo, sc, terminal half-life in brain) was 8.9 h and the half-life ([1]; female, C57Bl/6J, mouse, in vivo, sc, terminal half-life in plasma) was 7.7 h. For the same compound, the “AUC0-last, brain” value ([1]; mouse, in vivo, sc, 25 mg/kg) was 88.8 pmol·min/mg and the “AUC0-∞, brain” value ([1]; mouse, in vivo, sc, 25 mg/kg) was 129 pmol·min/mg.
With `CCOC(=O)Oc1ccc(Oc2ccc(S(=O)(=O)CC3CS3)cc2)cc1` (stereo not drawn) [Compound 4b, Ethyl (4-(4-((thiiran-2-ylmethyl)sulfonyl)phenoxy)phenyl) carbonate] the “Ki (inhibition constant) against MMP-9cat” value [2] was “comparable inhibition constants against MMP-9cat as ND-322” and the “time to complete hydrolysis to compound 2” value [3] was no more than 5 min.
In the case of `CCNC(=O)Oc1ccc(Oc2ccc(S(=O)(=O)CC3CS3)cc2)cc1` (stereo not drawn) [Compound 5b, 4-(4-((Thiiran-2-ylmethyl)sulfonyl)phenoxy)phenyl ethylcarbamate], the “level of 5b in plasma or brain” value ([1]; after 25 mg/kg sc dose of 5b, all time points) is reported as “not quantifiable”.
In the case of `CCNC(=O)Nc1ccc(Oc2ccc(S(=O)(=O)CC3CS3)cc2)cc1` (stereo not drawn) [Compound 6b, 1-Ethyl-3-(4-(4-((thiiran-2-ylmethyl)sulfonyl)phenoxy)phenyl)urea], the “elimination half-life in brain relative to plasma” value ([1]; 6b after 25 mg/kg sc dose of 6b) is reported as 3.3 fold, the “hydrolysis of 6b to give compound 3 in plasma and brain” value ([1]; after 25 mg/kg sc dose of 6b) is reported as “not observed” and the “time of maximal brain level of 6b” value ([1]; after 25 mg/kg sc dose of 6b) is reported as 10 min.
In the case of `CCOC(=O)Nc1ccc(Oc2ccc(S(=O)(=O)CC3CS3)cc2)cc1` (stereo not drawn) [Compound 7b, Ethyl (4-(4-((thiiran-2-ylmethyl)sulfonyl)phenoxy)phenyl)carbamate], the “Ki (inhibition constant) against MMP-9cat” value [2] is reported as “comparable inhibition constants against MMP-9cat as ND-322”.
